Key:
[1] = molecular target: T1, human CYP11B1 (Homo sapiens, UniProt P15538); test: G-402 cellular enzyme assay, human CYP11B1 (cortisol release, HTRF); format: cell-based; conditions: G-402 cells expressing human CYP11B1; 1 μM Deoxycortisol; 16 h
T1 construct: expressed in transfected cells
T1 sequence (P15538 25-503): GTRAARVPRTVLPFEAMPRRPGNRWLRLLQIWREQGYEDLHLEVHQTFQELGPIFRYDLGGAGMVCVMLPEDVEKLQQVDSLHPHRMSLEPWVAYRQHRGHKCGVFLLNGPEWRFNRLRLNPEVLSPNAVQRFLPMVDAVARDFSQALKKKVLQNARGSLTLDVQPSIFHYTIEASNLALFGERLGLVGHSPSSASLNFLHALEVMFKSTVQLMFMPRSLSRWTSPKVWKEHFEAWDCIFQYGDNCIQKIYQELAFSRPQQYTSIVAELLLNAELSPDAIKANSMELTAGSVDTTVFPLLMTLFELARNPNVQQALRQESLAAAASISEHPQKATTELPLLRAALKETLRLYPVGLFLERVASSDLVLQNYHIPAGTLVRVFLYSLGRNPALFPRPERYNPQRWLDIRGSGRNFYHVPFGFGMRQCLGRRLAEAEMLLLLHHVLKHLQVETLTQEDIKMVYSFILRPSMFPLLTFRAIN
Source text: (§1) Herein we identified the use of the G-402 cell line as a host cell to ectopically express (transiently or stably) enzymes of the CYP11 family. Specifically we developed stable G-402 cells expressing ectopically human CYP11B1, human CYP11B2, human CYP11A1, cynomolgus CYP11B1 or cynomolgus CYP11B2 enzyme activity. Importantly, the identified cell line G-402 expresses co-factors (adrenodoxin and adrenodoxin reductase) important for the activity of the CYP11 family, and no relevant enzyme activity of the CYP11 family (in comparison to H295R cells) was detected in these cells. Therefore the G-402 cell line is uniquely suited as a host cell for the ectopic expression of enzymes from the CYP11 family.
(§2) G-402 cells can be obtained from ATCC(CRL-1440) and were originally derived from a renal leiomyoblastoma.
(§3) The expression plasmids contains the ORF for either human/cyno CYP11B1 or CYP11B2 under the control of a suitable promoter (CMV-promoter) and a suitable resistance marker (neomycin). Using standard techniques the expression plasmid is transfected into G-402 cells and these cells are then selected for expressing the given resistance markers. Individual cell-clones are then selected and assessed for displaying the desired enzymatic activity using 11-Deoxycorticosterone (Cyp11B2) or 11-Deoxycortisol (Cyp11B1) as a substrate.
(§4) G-402 cells expressing CYP11 constructs were established as described above and maintained in McCoy's 5a Medium Modified, ATCC Catalog No. 30-2007 containing 10% FCS and 400 μg/ml G418 (Geneticin) at 37° C. under an atmosphere of 5% CO2/95% air. Cellular enzyme assays were performed in DMEM/F12 medium containing 2.5% charcoal treated FCS and appropriate concentration of substrate (0.3-10 uM 11-Deoxycorticosterone, 11-Deoxycortisol or Corticosterone). For assaying enzymatic activity, cells were plated onto 96 well plates and incubated for 16 h. An aliquot of the supernatant is then transferred and analyzed for the concentration of the expected product (Aldosterone for CYP11B2; Cortisol for CYP11B1). The concentrations of these steroids can be determined using HTRF assays from CisBio analyzing either Aldosterone or Cortisol.
(§5) Inhibition of the release of produced steroids can be used as a measure of the respective enzyme inhibition by test compounds added during the cellular enzyme assay. The dose dependent inhibition of enzymatic activity by a compound is calculated by means of plotting added inhibitor concentrations (x-axes) vs. measured steroid/product level (y-axes). The inhibition is then calculated by fitting the following 4-parameter sigmoidal function (Morgan-Mercer-Flodin (MMF) model) to the raw data points using the least squares method:
(§6) [formula] wherein A is the maximum y value, B is the EC50 factor determined using XLFit, C is the minimum y value and D is the slope value.
(§7) EC50 values for compounds claimed herein were tested with the G402-based assay system described. Cyp11B2 enzyme activity was tested in presence of 1 μM Deoxycorticosterone and variable amounts of inhibitors; Cyp11B1 enzyme activity was tested in presence of 1 μM Deoxycortisol and variable amounts of inhibitors.

[2] = molecular target: T2, human CYP11B2 (Homo sapiens, UniProt P19099); test: G-402 cellular enzyme assay, human CYP11B2 (aldosterone release, HTRF); format: cell-based; conditions: G-402 cells expressing human CYP11B2; 1 μM Deoxycorticosterone; 16 h
T2 construct: expressed in transfected cells
T2 sequence (P19099 25-503): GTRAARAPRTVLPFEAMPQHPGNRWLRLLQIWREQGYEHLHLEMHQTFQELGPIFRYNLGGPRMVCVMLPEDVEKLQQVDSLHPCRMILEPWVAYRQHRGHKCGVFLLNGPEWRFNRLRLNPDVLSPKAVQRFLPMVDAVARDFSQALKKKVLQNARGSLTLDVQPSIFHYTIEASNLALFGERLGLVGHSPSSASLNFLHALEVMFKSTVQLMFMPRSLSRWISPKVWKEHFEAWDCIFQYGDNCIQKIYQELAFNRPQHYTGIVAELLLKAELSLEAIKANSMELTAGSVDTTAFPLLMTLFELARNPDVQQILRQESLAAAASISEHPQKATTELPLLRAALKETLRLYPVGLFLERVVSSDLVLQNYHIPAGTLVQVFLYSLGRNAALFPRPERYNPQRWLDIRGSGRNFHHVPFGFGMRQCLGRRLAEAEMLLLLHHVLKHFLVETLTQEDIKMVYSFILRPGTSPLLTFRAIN
Source text: as §1, §2, §3, §4, §5, §6, §7

SMILES	EC50 [1] [nM]	EC50 [2] [nM]
N#Cc1ccc(-n2cncc2C(=O)c2ccc(Cl)c(Cl)c2)cc1 [Example 96, 4-[5-(3,4-Dichloro-benzoyl)-imidazol-1-yl]-benzonitrile]	199	5.6
CCC(C)n1cncc1C(=O)c1ccc(Cl)cc1 (centres unmarked) [Example 17]	3.5	0.3
N#Cc1ccc(-n2cncc2C(=O)c2ccc(Cl)c(F)c2)cc1 [Example 94, 4-[5-(4-Chloro-3-fluoro-benzoyl)-imidazol-1-yl]-benzonitrile]	84.6	14.4
CCSc1ccc(C(=O)c2cncn2C(C)C)cc1 [Example 71, (4-Ethylsulfanyl-phenyl)-(3-isopropyl-3H-imidazol-4-yl)-methanone]	253	5.3
Cn1cncc1C(=O)c1ccc(Cl)c(Cl)c1 [Example 3, (3,4-Dichloro-phenyl)-(3-methyl-3H-imidazol-4-yl)-methanone]	167	4.9
CCn1cncc1C(=O)c1ccc(SC(F)(F)F)c(OC)c1 [Example 80, (3-Ethyl-3H-imidazol-4-yl)-(3-methoxy-4-trifluoromethylsulfanyl-phenyl)-methanone]	634	12.9
Cn1cncc1C(=O)c1cccc(F)c1 [Example 24, (3-Fluoro-phenyl)-(3-methyl-3H-imidazol-4-yl)-methanone]	673	65.2
Cn1cncc1C(=O)c1cccc(Cl)c1 [Example 22, (3-Chloro-phenyl)-(3-methyl-3H-imidazol-4-yl)-methanone]	543	32.6
CC(=O)N(C)c1ccc(C(=O)c2cncn2C)cc1 [Example 55, N-Methyl-N-[4-(3-methyl-3H-imidazole-4-carbonyl)-phenyl]-acetamide]	–	923
Cn1cncc1C(=O)c1ccc2sccc2c1 [Example 44, Benzo[b]thiophen-5-yl-(3-methyl-3H-imidazol-4-yl)-methanone]	1070	40.9
CCC(CC)n1cncc1C(=O)c1cccc(C#N)c1 [Example 83, 3-[3-(1-Ethyl-propyl)-3H-imidazole-4-carbonyl]-benzonitrile]	57	5.7
CC(C)n1cncc1C(=O)c1ccc(N(C)C=O)cc1 [Example 93, N-[4-(3-Isopropyl-3H-imidazole-4-carbonyl)-phenyl]-N-methyl-formamide]	349	11.7
CCn1cncc1C(=O)c1ccc(C#N)c(Cl)c1 [Example 46, 2-Chloro-4-(3-ethyl-3H-imidazole-4-carbonyl)-benzonitrile]	25.4	2.3
CCSc1ccc(C(=O)c2cncn2C2CC2)cc1 [Example 70, (3-Cyclopropyl-3H-imidazol-4-yl)-(4-ethylsulfanyl-phenyl)-methanone]	364	22.8
CC(C)n1cncc1C(=O)c1ccc(SC(F)(F)F)cc1 [Example 75, (3-Isopropyl-3H-imidazol-4-yl)-(4-trifluoromethylsulfanyl-phenyl)-methanone]	760	89.9
CC(C)n1cncc1C(=O)c1ccc(C#N)cc1F [Example 10, 3-Fluoro-4-(3-isopropyl-3H-imidazole-4-carbonyl)-benzonitrile]	70.3	10.8

SMILES	EC50 [1] [nM]	EC50 [2] [nM]
Cn1cncc1C(=O)c1ccc(Cl)cc1Cl [Example 11, (2,4-Dichloro-phenyl)-(3-methyl-3H-imidazol-4-yl)-methanone]	1800	216
CCn1cncc1C(=O)c1ccc(Cl)cc1 [Example 7, (4-Chloro-phenyl)-(3-ethyl-3H-imidazol-4-yl)-methanone]	65.9	4.4
CC(C)n1cncc1C(=O)c1ccc(Cl)c(F)c1 [Example 39, (4-Chloro-3-fluoro-phenyl)-(3-isopropyl-3H-imidazol-4-yl)-methanone]	3.3	0.7
CCC(CC)n1cncc1C(=O)c1ccc(SC(F)(F)F)cc1 [Example 76, [3-(1-Ethyl-propyl)-3H-imidazol-4-yl]-(4-trifluoromethylsulfanyl-phenyl)-methanone]	264	42.7
CC(C)n1cncc1C(=O)c1cccc(Cl)c1 [Example 12, (3-Chloro-phenyl)-(3-isopropyl-3H-imidazol-4-yl)-methanone]	5.3	1.3
CC(C)n1cncc1C(=O)c1cccc(C#N)c1 [Example 57, 3-(3-Isopropyl-3H-imidazole-4-carbonyl)-benzonitrile]	203	26
O=C(c1ccc(Cl)c(F)c1)c1cncn1C1CC1 [Example 40, (4-Chloro-3-fluoro-phenyl)-(3-cyclopropyl-3H-imidazol-4-yl)-methanone]	14.8	2.3
CCn1cncc1C(=O)c1ccc2c(c1)CCC(=O)N2C [Example 26, 6-(3-Ethyl-3H-imidazole-4-carbonyl)-1-methyl-3,4-dihydro-1H-quinolin-2-one]	1120	19.7
CC(C)n1cncc1C(=O)c1ccc(F)c(Cl)c1 [Example 38, (3-Chloro-4-fluoro-phenyl)-(3-isopropyl-3H-imidazol-4-yl)-methanone]	3.9	3.9
CC(C)n1cncc1C(=O)c1ccc(C#N)c(Cl)c1 [Example 49, 2-Chloro-4-(3-isopropyl-3H-imidazole-4-carbonyl)-benzonitrile]	1	0.2
COc1ccc(C(=O)c2cncn2C)cc1 [Example 4, (4-Methoxy-phenyl)-(3-methyl-3H-imidazol-4-yl)-methanone]	3500	118
CN(C=O)c1ccc(C(=O)c2cncn2C)cc1 [Example 87, N-Methyl-N-[4-(3-methyl-3H-imidazole-4-carbonyl)-phenyl]-formamide]	30400	186
Cn1cncc1C(=O)c1ccc(S(C)(=O)=O)cc1 [Example 47, (4-Methanesulfonyl-phenyl)-(3-methyl-3H-imidazol-4-yl)-methanone]	–	3530
CN(C(=O)OC(C)(C)C)c1ccc(C(=O)c2cncn2C)cc1 [Example 85, Methyl-[4-(3-methyl-3H-imidazole-4-carbonyl)-phenyl]-carbamic acid tert-butyl ester]	12500	–
Cn1cncc1C(=O)c1ccc(C(C)(C)C)cc1 [Example 30, (4-tert-Butyl-phenyl)-(3-methyl-3H-imidazol-4-yl)-methanone]	9880	–
Cn1cncc1C(=O)c1ccc(SC(F)(F)F)cc1 [Example 73, (3-Methyl-3H-imidazol-4-yl)-(4-trifluoromethylsulfanyl-phenyl)-methanone]	–	390

— patent US9464058B2 (Hoffmann-La Roche Inc., priority 2012, dated 2016)
